Source: article PMC10303920, “Competition between skin antimicrobial peptides and commensal bacteria in type 2 inflammation enables survival of S. aureus” (Cell reports, 2023)
No end group written: not given here.

What was measured:
S. aureus (ATCC35556) [1] = assay: Survival of S. aureus on mouse skin in inflammation models; type: in vivo, Balb/c mice
Source text: All experiments involving live animals were done with the approval of the Institutional Animal Care and Use Guidelines of the University of California, San Diego (Protocol number: S09074). To investigate influences of distinct type of skin inflammation on the microbial community on the skin surface, we employed Th2 and Th17 inflammation models using mixed sex of Il4ra^−/− Balb/c (Jackson Laboratory, ME), Camp^−/− Balb/c,[4] Flg^ft/ft Balb/c or WT Balb/c mice (Jackson Laboratory) (6–8 weeks). Mice were housed under a specific pathogen-free condition with 12hr light/12hr dark cycle at 20–22°C and 30–70% humidity. Mice were randomly selected, the back skin was shaved, treated with depilatory cream, rinsed with water, cleaned with alcohol swab twice. To induce Th2 inflammation, MC903 (50μL of 90μM in ethanol) was applied to the back skin of WT, Il4ra^−/− or Camp^−/− mice every day for 14 days. Control mice received equal volume of ethanol. Alternatively, a sterile patch (2 × 2cm) with OVA solution (100 μg/100 μL PBS) or PBS was placed on tape-stripped dorsal skin of Flg^ft/ft Balb/c mice (6–8 weeks, mixed sex) and covered with Tegaderm wound dressing film for 8 days (the patch was replaced every 2 days). Mice received 3 times of 8-day OVA exposures by 2-week intervals. […] The dorsal skin was disinfected with alcohol swabs twice, applied with a 6-mm TSB agar disc containing 1 × 10^6 CFU of S. aureus (ATCC35556), and covered with Tegaderm wound dressing film for initial 24 h for quantitative bacterial application. […]
Bacteria were cultured in tryptic soy broth (TSB) at 37°C overnight, washed with PBS, and re-suspended in PBS at 1 × 10^6 CFU/5μL. […] The entire dorsal skin was then covered with wound dressing film for quantitative bacterial application and to avoid contamination.[18] […]
Survival of S. aureus and CoNS were measured on Baird-Parker agar for S. aureus or mannitol salt agar with egg yolk for total Staphylococcus species using easySpiral automatic diluter plater with exponential mode or circle mode and automatic colony counter (Interscience Inc., France). […]

[2] = tested on: AMP gene expression at wound edge; assay: AMP response to partial-thickness skin wounds of mice treated by MC903; type: in vivo, Balb/c mice; settings: MC903 or vehicle for 14 days, scratched by 18 gauge needle, biopsy at wound edge after 48 hours; Figure S3
Source text: All experiments involving live animals were done with the approval of the Institutional Animal Care and Use Guidelines of the University of California, San Diego (Protocol number: S09074). To investigate influences of distinct type of skin inflammation on the microbial community on the skin surface, we employed Th2 and Th17 inflammation models using mixed sex of Il4ra^−/− Balb/c (Jackson Laboratory, ME), Camp^−/− Balb/c,[4] Flg^ft/ft Balb/c or WT Balb/c mice (Jackson Laboratory) (6–8 weeks). Mice were housed under a specific pathogen-free condition with 12hr light/12hr dark cycle at 20–22°C and 30–70% humidity. Mice were randomly selected, the back skin was shaved, treated with depilatory cream, rinsed with water, cleaned with alcohol swab twice. To induce Th2 inflammation, MC903 (50μL of 90μM in ethanol) was applied to the back skin of WT, Il4ra^−/− or Camp^−/− mice every day for 14 days. […] The dorsal skin was disinfected with alcohol swabs twice, applied with a 6-mm TSB agar disc containing 1 × 10^6 CFU of S. aureus (ATCC35556), and covered with Tegaderm wound dressing film for initial 24 h for quantitative bacterial application. […] The mRNA expression of each gene was evaluated by qPCR and normalized to GAPDH expression (key resources table). page 4: Figure S3. […] P-value (*P<0.05 and **P<0.01) was calculated by two-tailed unpaired parametric t-test. […]

S. aureus (ATCC35556) [3] = assay: Survival of S. aureus on mouse skin after topical steroid; type: in vivo, Balb/c WT mice; settings: 0.1% triamcinolone topical at 24 and 32 h after S. aureus, read at 48 h; Figure 2L
Description: (§1) Back skin of Balb/c WT mice (8 weeks, female) were shaved and treated with MC903 as described above. After decontaminating the skin with alcohol swab twice, S. aureus (ATCC35556, 1 × 10^6 CFU) were applied with a TSB agar disc and whole back skin was covered with Tegaderm wound dressing film for 24 h. Tegaderm and the TSB disc were removed, and then 0.1% Triamcinolone (Perrigo) or Vaseline (50μg) were applied twice on back skin at 24 and 32 h after S. aureus were applied. Skin swab and biopsy was ob tained to measure S. aureus survival and immune response of the skin, respectively, at 48 h after bacteria application.
Survival of S. aureus and CoNS were measured on Baird-Parker agar for S. aureus or mannitol salt agar with egg yolk for total Staphylococcus species using easySpiral automatic diluter plater with exponential mode or circle mode and automatic colony counter (Interscience Inc., France). To determine total CoNS survival, CFUs on mannitol salt agar were subtracted by CFUs on Baird-Parker agar. To distinguish ShA9-WT and ShA9-ΔLanti mutant, CoNS colonies with pink color without halo were randomly picked from mannitol salt agar plate and conducted colony PCR with gene specific primers for ShA9-lantibiotic-α (key resources table).

[4] = tested on: Il17a, Il4, Il13, Camp, Defb14, Defb4 expression; assay: qPCR of cytokine and AMP genes in mouse skin after topical steroid; type: in vivo, Balb/c WT mice; settings: topical triamcinolone
Description: as §1
To determine expression of mRNA for Il4, Il13, Il17a, Tslp, Defb4, […] or Camp, 6mm punch biopsy was obtained from the mouse back skin. Skin biopsy was stored in 1mL of RNAlater solution at −80°C. Total RNA was extracted with PureLink RNA extraction kit (ThermoScientific Fisher) and one μg of total RNA was reversely transcribed with VERSO cDNA synthesis kit (ThermoScientific Fisher). Predeveloped qPCR assay primer sets (IDT oligo, listed in key resources table) were used for analyzing the expressions of these genes. The mRNA expression of each gene was evaluated by qPCR and normalized to GAPDH expression (key resources table).

ShA9-WT and ShA9-ΔLanti = assay: Growth inhibition of ShA9-WT and ShA9-ΔLanti by human and murine AMPs (OD600); type: cell-based, Staphylococcus hominis; settings: 90% RPMI/10% TSB, 30°C, 24 h, mean of duplicate technical replicates, Figure 4E
Description: Staphylococcus strains collected from normal skin from healthy subjects or lesional skin from AD patients were cultured in TSB overnight. Bacteria were washed with PBS and resuspended to 90% RPMI media and 10% TSB. Bacteria (1 × 10^5 CFU/mL) were incu bated with or without human AMPs (LL-37, hBD-2, hBD-3) or mouse cathelin-related AMP (CRAMP) in 90% RPMI media and 10% TSB (100 μL) in each well of a 96-well plate at 30°C for 24 h. Bacterial growth was assessed by measuring OD600. Minimal inhibitory concentration was defined as the lowest concentration which prevent visible bacterial growth (<5% of OD600 value of the con trol well).

## C=C1/C(=C\C=C2/CCC[C@]3(C)[C@@H]([C@H](C)/C=C/[C@@H](O)C4CC4)CC[C@@H]23)C[C@@H](O)C[C@@H]1O [MC903]
S. aureus (ATCC35556) [1]; WT Balb/c mice, MC903 50 μL of 90 μM daily for 14 days, S. aureus 1 × 10^6 CFU for 48 h, Figure S1G
  S. aureus survival on the skin after MC903 pretreatment relative to untreated mice: increased
[2]
  AMP response to skin wounding after MC903: suppressed

## CC(C)Cn1cnc2c(N)nc3ccccc3c21 [imiquimod]
S. aureus (ATCC35556) [1]; Flg^ft/ft mice, 5% imiquimod cream daily for 7 days, S. aureus for 48 hours, Figure S6
  Protection against S. aureus on imiquimod-treated skin: enhanced protection against S. aureus

## C[C@]12C=CC(=O)C=C1CC[C@H]1[C@@H]3C[C@@H](O)[C@](O)(C(=O)CO)[C@@]3(C)C[C@H](O)[C@@]12F [triamcinolone]
S. aureus (ATCC35556) [3]
  Survival of S. aureus on MC903-pretreated mouse skin: decreased survival of S. aureus
[4]; no MC903, Figure 2F
  Il17a expression, healthy skin after S. aureus exposure: decreased
[4]; no MC903, Figure 2I
  Camp expression, healthy skin after S. aureus exposure: decreased
[4]; no MC903, Figure 2J
  Defb14 expression, healthy skin after S. aureus exposure: decreased
[4]; Figure 2G
  Il4 expression, skin with Th2 inflammation (MC903 and S. aureus): decreased
[4]; Figure 2H
  Il13 expression, skin with Th2 inflammation (MC903 and S. aureus): decreased
[4]; Figure 2I
  Camp expression, skin with Th2 inflammation (MC903 and S. aureus): increased
[4]; Figure 2J
  Defb14 expression, skin with Th2 inflammation (MC903 and S. aureus): increased
[4]; Figure 2K
  Defb4 expression, skin with Th2 inflammation (MC903 and S. aureus): increased

## CRAMP (GLL-33)
ShA9-WT and ShA9-ΔLanti
  Sensitivity of ShA9-WT to the AMP compared with ShA9-ΔLanti (growth inhibition): more sensitive

## human beta-defensin 2 [hBD-2]
ShA9-WT and ShA9-ΔLanti
  Sensitivity of ShA9-WT to the AMP compared with ShA9-ΔLanti (growth inhibition): more sensitive

## human beta-defensin 3 (GIINTLQKYYCRVRGGRCAVLSCLPKEEQIGKCSTRGRKCCRRKK; ends and bridges not checked; cysteine pairing not given here; UniProt P81534 23-67, looked up) [hBD-3, human β-defensin, synthetic AMP (Peptide International)]
ShA9-WT and ShA9-ΔLanti
  Sensitivity of ShA9-WT to the AMP compared with ShA9-ΔLanti (growth inhibition): more sensitive

B1: ovalbumin (protein, UniProt P01012 2-386, looked up)
Ovalbumin: GSIGAASMEFCFDVFKELKVHHANENIFYCPIAIMSALAMVYLGAKDSTRTQINKVVRFDKLPGFGDSIEAQCGTSVNVHSSLRDILNQITKPNDVYSFSLASRLYAEERYPILPEYLQCVKELYRGGLEPINFQTAADQARELINSWVESQTNGIIRNVLQPSSVDSQTAMVLVNAIVFKGLWEKAFKDEDTQAMPFRVTEQESKPVQMMYQIGLFRVASMASEKMKILELPFASGTMSMLVLLPDEVSGLEQLESIINFEKLTEWTSSNVMEERKIKVYLPRMKMEEKYNLTSVLMAMGITDVFSSSANLSGISSAESLKISQAVHAAHAEINEAGREVVGSAEAGVDAASVSEEFRADHPFLFCIKHIATNAVLFFGRCVSP
notes: ovalbumin used for epicutaneous sensitization to induce Th2 inflammation
S. aureus (ATCC35556) [1]; Flg^ft/ft Balb/c mice, 100 μg OVA in 100 μL PBS, 3 exposure cycles, S. aureus 1 × 10^6 CFU for 48 h, Figure S1M
  S. aureus survival on the skin after OVA sensitization relative to untreated mice: increased colonization by S. aureus
